Consider one molecule from patent US9364476B2, “Methods of treating a Bruton's Tyrosine Kinase disease or disorder” (Celgene Avilomics Research, Inc., priority 2011, dated 2016).

One assay relates to CLL patients. Put plainly: Dose escalation study: lymph node size and absolute lymphocyte count in CLL patients. In kind it is in vivo, human. The text has this: FIG. 6 depicts the change in lymph node size in CLL patients with available lymph node assessment, twelve (12) of whom are from cohorts 1-5. These patients have experienced some degree of lymph node reduction: 2/12 patients have experienced nodal response (>50% reduction); 6/12 patients have experienced between 25 and 50% reduction over the treatment and follow-up periods indicated in the figure. The doses indicated refer to the patient's starting dose. The numbers at the top of each bar indicate the number of cycles completed for each subject as of the last available lymph node measurement.
FIG. 7 depicts the change in absolute lymphocyte count (ALC) in CLL patients. As of Sep. […] All CLL subjects with follow-up through cycle 1 at all dose levels are shown. Subjects treated with 750 mg or higher are indicated under the dotted line.

The test system of another assay is B-NHL patients. Put plainly: Dose escalation study: lymph node size in B-NHL patients. In kind it is in vivo, human. Conditions: dose escalation cohorts. An excerpt:
The doses indicated refer to the patient's starting dose. The numbers at the top of each bar indicate the number of cycles completed for each subject as of the last available lymph node measurement.

Setting [1] is: twelve CLL patients from cohorts 1-5 with lymph node assessment.

Turning to `C=CC(=O)Nc1cccc(Nc2nc(Nc3ccc(OCCOC)cc3)ncc2F)c1.O=S(=O)(O)c1ccccc1` [N-(3-(5-fluoro-2-(4-(2-methoxyethoxy)phenylamino)pyrimidin-4-ylamino)phenyl)acrylamide besylate], the “CLL patients with early increases (≧25%) in absolute lymphocyte counts (ALC)” value in the assay with CLL patients (of fifteen (15) CLL patients in cohorts 1-6A/B, first 28-day cycle, as of Sep. 11, 2012) came to 11 patients. In the assay on CLL patients (setting [1]), the “CLL patients with between 25 and 50% reduction of lymph node size” value is 6/12; the “CLL patients with nodal response (>50% reduction of lymph node size)” value is reported as 2/12. Besides, in the assay on B-NHL patients, the “B-NHL patients with decreased lymph node size” value was “Six”.
